Assays:
[1] = target: T1, Ephrin type-A receptor 8 (Homo sapiens) (UniProt P29322); test: Inhibition of human EphA8 assessed as remaining enzyme activity at 0.01 uM
T1 sequence (whole entry): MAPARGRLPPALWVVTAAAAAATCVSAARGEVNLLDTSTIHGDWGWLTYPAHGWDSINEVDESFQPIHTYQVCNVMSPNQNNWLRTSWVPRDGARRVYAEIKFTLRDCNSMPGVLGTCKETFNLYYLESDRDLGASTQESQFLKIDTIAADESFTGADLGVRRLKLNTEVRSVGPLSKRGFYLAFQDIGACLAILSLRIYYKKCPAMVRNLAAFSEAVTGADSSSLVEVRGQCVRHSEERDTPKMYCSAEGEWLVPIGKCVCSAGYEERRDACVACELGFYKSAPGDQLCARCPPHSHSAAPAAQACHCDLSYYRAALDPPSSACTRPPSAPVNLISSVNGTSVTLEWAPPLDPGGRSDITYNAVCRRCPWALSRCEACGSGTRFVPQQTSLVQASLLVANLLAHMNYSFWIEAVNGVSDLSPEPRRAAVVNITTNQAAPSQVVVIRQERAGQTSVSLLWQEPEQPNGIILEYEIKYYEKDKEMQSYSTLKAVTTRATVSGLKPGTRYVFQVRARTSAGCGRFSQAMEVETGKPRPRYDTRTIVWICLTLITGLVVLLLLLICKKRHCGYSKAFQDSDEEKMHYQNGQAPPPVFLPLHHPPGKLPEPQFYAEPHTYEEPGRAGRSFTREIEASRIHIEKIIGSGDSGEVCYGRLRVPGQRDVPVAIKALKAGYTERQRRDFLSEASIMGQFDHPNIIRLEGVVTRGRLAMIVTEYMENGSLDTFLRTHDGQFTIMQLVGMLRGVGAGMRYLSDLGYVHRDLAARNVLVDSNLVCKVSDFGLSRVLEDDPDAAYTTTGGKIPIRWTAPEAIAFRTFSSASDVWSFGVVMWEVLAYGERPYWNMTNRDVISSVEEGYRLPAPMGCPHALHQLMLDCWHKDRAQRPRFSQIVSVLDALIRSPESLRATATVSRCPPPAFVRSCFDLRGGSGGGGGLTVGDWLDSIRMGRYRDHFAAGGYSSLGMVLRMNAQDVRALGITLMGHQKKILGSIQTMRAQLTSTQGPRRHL

[2] = target: Tyrosine-protein kinase ABL1 (Homo sapiens) (UniProt P00519); test: Inhibition of human ABL assessed as remaining enzyme activity at 0.1 uM
Tyrosine-protein kinase ABL1 (Homo sapiens), sequence (P00519 whole entry): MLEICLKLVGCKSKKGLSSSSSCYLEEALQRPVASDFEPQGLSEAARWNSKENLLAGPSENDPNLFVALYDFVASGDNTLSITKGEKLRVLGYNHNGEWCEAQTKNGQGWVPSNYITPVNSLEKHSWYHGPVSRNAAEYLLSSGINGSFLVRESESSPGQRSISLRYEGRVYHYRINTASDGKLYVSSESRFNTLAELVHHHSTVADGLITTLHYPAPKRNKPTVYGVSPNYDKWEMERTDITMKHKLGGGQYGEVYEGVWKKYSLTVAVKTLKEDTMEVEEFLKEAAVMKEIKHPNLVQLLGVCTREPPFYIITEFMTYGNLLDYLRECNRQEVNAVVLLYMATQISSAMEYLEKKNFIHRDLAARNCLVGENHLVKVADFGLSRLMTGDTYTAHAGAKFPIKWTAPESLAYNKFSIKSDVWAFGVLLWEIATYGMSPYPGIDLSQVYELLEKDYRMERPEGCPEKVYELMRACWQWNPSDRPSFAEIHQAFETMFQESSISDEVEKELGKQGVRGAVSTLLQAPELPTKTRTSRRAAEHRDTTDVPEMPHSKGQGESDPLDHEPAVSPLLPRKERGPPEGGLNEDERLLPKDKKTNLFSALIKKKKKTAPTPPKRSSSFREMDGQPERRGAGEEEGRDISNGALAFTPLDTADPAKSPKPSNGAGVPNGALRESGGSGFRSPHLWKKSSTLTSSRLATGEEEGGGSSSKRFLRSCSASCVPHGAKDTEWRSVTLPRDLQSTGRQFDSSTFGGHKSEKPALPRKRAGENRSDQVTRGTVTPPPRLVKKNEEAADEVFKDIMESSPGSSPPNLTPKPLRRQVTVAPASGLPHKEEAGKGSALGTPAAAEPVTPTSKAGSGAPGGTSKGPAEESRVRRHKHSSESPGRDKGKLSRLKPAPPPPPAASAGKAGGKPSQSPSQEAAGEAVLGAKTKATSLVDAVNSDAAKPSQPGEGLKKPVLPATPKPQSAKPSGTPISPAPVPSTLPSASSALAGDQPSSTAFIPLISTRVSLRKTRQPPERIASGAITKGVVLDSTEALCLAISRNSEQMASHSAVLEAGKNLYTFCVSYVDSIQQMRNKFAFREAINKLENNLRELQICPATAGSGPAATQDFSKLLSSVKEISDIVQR

[3] = target: Ephrin type-A receptor 2 (Homo sapiens) (UniProt P29317); test: Inhibition of human EphA2 assessed as remaining enzyme activity at 0.01 uM
Ephrin type-A receptor 2 (Homo sapiens), sequence (P29317 whole entry): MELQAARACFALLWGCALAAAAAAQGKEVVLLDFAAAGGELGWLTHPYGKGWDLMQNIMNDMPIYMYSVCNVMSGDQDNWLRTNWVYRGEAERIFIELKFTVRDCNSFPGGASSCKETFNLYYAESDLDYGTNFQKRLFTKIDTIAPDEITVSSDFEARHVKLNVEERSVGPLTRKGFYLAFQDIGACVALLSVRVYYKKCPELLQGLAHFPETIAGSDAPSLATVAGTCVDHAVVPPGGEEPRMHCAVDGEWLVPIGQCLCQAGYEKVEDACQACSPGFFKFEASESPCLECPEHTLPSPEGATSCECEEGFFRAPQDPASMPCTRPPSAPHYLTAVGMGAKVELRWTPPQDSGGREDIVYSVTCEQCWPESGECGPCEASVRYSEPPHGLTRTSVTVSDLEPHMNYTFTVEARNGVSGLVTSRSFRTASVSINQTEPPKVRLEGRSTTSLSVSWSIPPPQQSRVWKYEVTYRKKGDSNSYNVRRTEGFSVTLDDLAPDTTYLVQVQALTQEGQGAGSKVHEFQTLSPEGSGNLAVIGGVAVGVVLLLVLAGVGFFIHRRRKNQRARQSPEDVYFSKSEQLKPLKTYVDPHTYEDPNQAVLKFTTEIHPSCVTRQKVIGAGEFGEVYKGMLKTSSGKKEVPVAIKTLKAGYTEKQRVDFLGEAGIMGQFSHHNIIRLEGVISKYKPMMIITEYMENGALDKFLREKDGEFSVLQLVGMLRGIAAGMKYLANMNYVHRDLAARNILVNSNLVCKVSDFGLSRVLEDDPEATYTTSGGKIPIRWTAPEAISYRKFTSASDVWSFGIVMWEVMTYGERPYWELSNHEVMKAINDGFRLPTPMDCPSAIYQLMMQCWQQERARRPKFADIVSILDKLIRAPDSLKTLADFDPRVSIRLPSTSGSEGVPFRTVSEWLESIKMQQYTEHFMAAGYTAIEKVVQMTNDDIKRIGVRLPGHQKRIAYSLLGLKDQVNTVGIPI

[4] = target: T2, Homeodomain-interacting protein kinase 4 (Homo sapiens) (UniProt Q8NE63); test: Inhibition of human HIPK4 assessed as remaining enzyme activity at 1 uM
T2 sequence (whole entry): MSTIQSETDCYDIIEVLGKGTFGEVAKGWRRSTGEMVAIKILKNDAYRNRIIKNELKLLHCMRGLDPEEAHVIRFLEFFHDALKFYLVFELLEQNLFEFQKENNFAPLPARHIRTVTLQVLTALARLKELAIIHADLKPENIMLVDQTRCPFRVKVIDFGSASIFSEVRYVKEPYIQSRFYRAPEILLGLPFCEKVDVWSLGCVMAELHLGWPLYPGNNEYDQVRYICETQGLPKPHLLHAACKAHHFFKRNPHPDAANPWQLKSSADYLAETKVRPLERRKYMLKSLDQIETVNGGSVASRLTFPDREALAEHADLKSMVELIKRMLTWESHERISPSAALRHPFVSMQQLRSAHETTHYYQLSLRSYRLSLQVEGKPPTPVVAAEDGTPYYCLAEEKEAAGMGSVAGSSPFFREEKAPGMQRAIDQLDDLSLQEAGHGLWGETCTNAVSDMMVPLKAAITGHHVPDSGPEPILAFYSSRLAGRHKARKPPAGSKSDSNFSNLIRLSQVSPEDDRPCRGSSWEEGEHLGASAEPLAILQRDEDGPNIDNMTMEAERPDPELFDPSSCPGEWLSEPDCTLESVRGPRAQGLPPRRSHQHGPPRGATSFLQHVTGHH

[5] = target: Vascular endothelial growth factor receptor 1 (Homo sapiens) (UniProt P17948); test: Inhibition of human VEGFR1 assessed as remaining enzyme activity at 0.01 uM
[6] = target: Tyrosine-protein kinase ABL2 (Mus musculus) (UniProt Q4JIM5); test: Inhibition of mouse ARG assessed as remaining enzyme activity at 1 uM
[7] = target: Tyrosine-protein kinase ABL1 (Homo sapiens) (UniProt P00519); test: Inhibition of human ABL assessed as remaining enzyme activity at 1 uM
[8] = target: T2, Homeodomain-interacting protein kinase 4 (Homo sapiens); test: Inhibition of human HIPK4 assessed as remaining enzyme activity at 0.01 uM
[9] = target: Serine/threonine-protein kinase 10 (Homo sapiens) (UniProt O94804); test: Inhibition of human LOK assessed as remaining enzyme activity at 1 uM
[10] = target: Homeodomain-interacting protein kinase 3 (Homo sapiens) (UniProt Q9H422); test: Inhibition of human HIPK3 assessed as remaining enzyme activity at 0.01 uM
[11] = target: Tyrosine-protein kinase Blk (Mus musculus) (UniProt P16277); test: Inhibition of mouse BLK assessed as remaining enzyme activity at 1 uM
Tyrosine-protein kinase Blk (Mus musculus), sequence (P16277 whole entry): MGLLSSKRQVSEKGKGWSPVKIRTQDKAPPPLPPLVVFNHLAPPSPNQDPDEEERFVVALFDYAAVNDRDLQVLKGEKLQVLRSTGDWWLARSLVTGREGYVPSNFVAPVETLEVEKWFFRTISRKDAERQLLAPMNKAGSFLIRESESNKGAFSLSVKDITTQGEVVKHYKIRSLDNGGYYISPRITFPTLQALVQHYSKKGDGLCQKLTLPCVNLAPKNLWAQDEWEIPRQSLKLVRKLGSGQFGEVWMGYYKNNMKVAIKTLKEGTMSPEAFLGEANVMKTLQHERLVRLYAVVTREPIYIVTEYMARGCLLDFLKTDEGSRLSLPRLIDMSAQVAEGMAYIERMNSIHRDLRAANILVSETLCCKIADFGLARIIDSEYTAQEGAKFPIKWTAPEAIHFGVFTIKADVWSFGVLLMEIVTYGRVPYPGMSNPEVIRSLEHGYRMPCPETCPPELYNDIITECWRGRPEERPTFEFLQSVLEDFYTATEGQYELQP

[12] = target: Vascular endothelial growth factor receptor 3 (Homo sapiens) (UniProt P35916); test: Inhibition of human VEGFR3 assessed as remaining enzyme activity at 0.1 uM
[13] = target: Tyrosine-protein kinase Blk (Mus musculus) (UniProt P16277); test: Inhibition of mouse BLK assessed as remaining enzyme activity at 0.01 uM
[14] = target: BDNF/NT-3 growth factors receptor (Homo sapiens) (UniProt Q16620); test: Inhibition of human TRKB assessed as remaining enzyme activity at 0.01 uM
BDNF/NT-3 growth factors receptor (Homo sapiens), sequence (Q16620 32-822 limits assumed): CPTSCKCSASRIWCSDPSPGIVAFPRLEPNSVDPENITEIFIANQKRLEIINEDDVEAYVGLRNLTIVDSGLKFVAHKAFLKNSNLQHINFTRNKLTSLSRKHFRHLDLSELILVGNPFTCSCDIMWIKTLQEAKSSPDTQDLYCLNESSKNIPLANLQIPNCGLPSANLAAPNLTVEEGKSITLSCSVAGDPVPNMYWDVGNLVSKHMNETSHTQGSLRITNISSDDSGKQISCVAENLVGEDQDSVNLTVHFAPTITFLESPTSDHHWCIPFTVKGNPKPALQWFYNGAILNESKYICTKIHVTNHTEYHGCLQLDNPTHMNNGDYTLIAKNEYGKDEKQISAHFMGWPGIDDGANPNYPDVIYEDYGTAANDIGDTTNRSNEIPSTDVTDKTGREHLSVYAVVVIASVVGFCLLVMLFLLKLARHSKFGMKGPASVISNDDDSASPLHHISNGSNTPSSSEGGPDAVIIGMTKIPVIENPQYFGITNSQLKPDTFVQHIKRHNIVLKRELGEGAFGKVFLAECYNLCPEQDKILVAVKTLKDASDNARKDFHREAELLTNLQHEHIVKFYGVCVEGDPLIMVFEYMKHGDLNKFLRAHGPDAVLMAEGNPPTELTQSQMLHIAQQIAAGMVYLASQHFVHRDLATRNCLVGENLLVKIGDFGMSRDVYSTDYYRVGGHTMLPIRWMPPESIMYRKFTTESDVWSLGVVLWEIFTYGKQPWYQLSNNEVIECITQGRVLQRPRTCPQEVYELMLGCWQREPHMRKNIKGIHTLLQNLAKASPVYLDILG

[15] = target: Cyclin-dependent kinase-like 2 (Homo sapiens) (UniProt Q92772); test: Inhibition of human CDKL2 assessed as remaining enzyme activity at 1 uM
[16] = target: Serine/threonine-protein kinase B-raf (Homo sapiens) (UniProt P15056); test: Inhibition of human B-Raf assessed as remaining enzyme activity at 0.1 uM
Serine/threonine-protein kinase B-raf (Homo sapiens), sequence (P15056 whole entry): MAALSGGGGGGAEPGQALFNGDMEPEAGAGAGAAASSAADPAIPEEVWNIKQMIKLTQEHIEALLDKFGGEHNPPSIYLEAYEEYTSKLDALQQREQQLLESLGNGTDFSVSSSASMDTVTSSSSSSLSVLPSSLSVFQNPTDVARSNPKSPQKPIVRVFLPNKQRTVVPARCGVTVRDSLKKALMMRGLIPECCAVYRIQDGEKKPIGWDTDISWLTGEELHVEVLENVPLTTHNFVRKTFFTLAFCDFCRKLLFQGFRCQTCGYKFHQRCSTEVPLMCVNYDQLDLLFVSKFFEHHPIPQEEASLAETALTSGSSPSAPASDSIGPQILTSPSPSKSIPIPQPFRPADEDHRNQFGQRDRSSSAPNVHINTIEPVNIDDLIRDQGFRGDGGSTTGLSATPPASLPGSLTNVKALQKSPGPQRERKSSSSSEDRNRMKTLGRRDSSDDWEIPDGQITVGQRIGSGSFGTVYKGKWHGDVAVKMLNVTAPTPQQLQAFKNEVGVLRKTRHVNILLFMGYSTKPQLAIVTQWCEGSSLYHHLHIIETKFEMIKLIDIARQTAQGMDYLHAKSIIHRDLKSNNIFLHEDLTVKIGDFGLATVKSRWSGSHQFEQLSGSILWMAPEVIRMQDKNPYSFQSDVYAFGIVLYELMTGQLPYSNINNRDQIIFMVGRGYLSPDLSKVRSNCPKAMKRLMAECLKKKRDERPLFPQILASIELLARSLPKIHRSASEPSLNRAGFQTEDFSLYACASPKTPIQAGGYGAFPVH

[17] = target: Tyrosine-protein kinase FRK (Homo sapiens) (UniProt P42685); test: Inhibition of human PTK5 assessed as remaining enzyme activity at 0.01 uM
Tyrosine-protein kinase FRK (Homo sapiens), sequence (P42685 whole entry, the tested form may be a part): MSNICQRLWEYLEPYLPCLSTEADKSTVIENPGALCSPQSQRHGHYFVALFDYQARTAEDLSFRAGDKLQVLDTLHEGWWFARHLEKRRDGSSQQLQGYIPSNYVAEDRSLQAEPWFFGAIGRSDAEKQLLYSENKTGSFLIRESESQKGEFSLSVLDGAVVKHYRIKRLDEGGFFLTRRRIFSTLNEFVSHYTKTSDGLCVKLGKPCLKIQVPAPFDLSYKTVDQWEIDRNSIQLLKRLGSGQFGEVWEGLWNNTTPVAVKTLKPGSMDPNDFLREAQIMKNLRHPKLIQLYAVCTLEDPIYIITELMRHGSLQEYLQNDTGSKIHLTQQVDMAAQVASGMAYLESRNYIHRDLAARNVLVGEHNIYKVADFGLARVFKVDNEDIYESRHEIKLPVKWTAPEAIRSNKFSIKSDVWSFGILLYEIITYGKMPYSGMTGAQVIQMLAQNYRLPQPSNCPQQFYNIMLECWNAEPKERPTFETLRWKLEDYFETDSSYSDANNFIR

[18] = target: NT-3 growth factor receptor (Homo sapiens) (UniProt Q16288); test: Inhibition of human TRKC assessed as remaining enzyme activity at 0.01 uM
[19] = target: Serine/threonine-protein kinase B-raf (Homo sapiens) (UniProt P15056); test: Inhibition of human B-Raf assessed as remaining enzyme activity at 1 uM
[20] = target: Ephrin type-A receptor 2 (Homo sapiens) (UniProt P29317); test: Inhibition of human EphA2 assessed as remaining enzyme activity at 0.1 uM
[21] = target: RAF proto-oncogene serine/threonine-protein kinase (Homo sapiens) (UniProt P04049); test: Inhibition of human RAF1 assessed as remaining enzyme activity at 0.01 uM
[22] = target: Tyrosine-protein kinase FRK (Homo sapiens) (UniProt P42685); test: Inhibition of human PTK5 assessed as remaining enzyme activity at 0.1 uM
[23] = target: LIM domain kinase 1 (Homo sapiens) (UniProt P53667); test: Inhibition of human LIMK1 assessed as remaining enzyme activity at 1 uM

Activity [1]: 85%
Activity [2]: 49%
Activity [3]: 90%
Activity [4]: -1%
Activity [5]: 43%
Activity [6]: 9%
Activity [7]: 8%
Activity [8]: 31%
Activity [9]: 34%
Activity [10]: 103%
Activity [11]: 1%
Activity [12]: 1%
Activity [13]: 52%
Activity [14]: 100%
Activity [15]: 47%
Activity [16]: 66%
Activity [17]: 64%
Activity [18]: 54%
Activity [19]: 8%
Activity [20]: 58%
Activity [21]: 93%
Activity [22]: 18%
Activity [23]: 46%
Compound: CNC(=O)c1cc(Oc2ccc(NC(=O)Nc3ccc(Cl)c(C(F)(F)F)c3)c(F)c2)ccn1
